From patent US20230233592A1, “PHARMACEUTICAL COMPOSITION FOR THE CHEMICAL INHIBITION OF TGS1 IN THE THERAPEUTIC TREATMENT OF TELOMEROPATHIES” (priority 2020, published 2023)
“Also recorded” adds a separate entry of the source. Read-outs that look alike come from different tables or passages of the source.

Experiments:
[1] = molecular target: T1, recombinant TGS1 enzyme fused to protein GST (Homo sapiens, UniProt Q96RS0); experiment: In vitro hypermethylation assay with recombinant GST-TGS1 enzyme; format: biochemical; conditions: Sinefungin 100 μM; 50 μM [3H-CH3]AdoMet; 5 mM m7GTP
T1 construct: made in house; host or cells: bacterial cells
Description: Sinefungin, analogous of S-adenosyl-methionine, inhibits the reaction of hypermethylation catalyzed by TGS1. (A) In vitro assay of hypermethylation performed by incubating 1 μg of recombinant GST-TGS1 or GST with 50 μM [^3H—CH3]AdoMet (SAM) and with 5 mM m^7GTP (MMG), in presence or not of 100 μM Sinefungin. Aliquots of the reaction mixture are placed on cellulose-polyethyleneimine and the reaction products are resolved by means of TLC. The incorporation of ^3H—CHs in the methylated derivatives of MMg (DMG or TMG) is quantified by means of liquid scintillation counting. (B) Control reactions performed without protein or GST. (C) The entity of transfer of ^3H-methyl to the dinucleotide cap is shown. The Sinefungin capability of inhibiting the methyl-transferase activity of TGS1 enzyme was evaluated by means of recombinant in vitro hypermethylation assay by using recombinant TGS1 enzyme fused to protein GST. After having purified TGS1-GST from bacterial cells, still immobilized on glutathione beads, or GST alone, the assay was performed in presence or absence of Sinefungin, by using [^3H—CH3]AdoMet as methyl donor and m^7GTP (MMG) as substrate.

UMUC3 cells [2] = experiment: qRT-PCR analysis of hTR levels in UMUC3 cells; format: cell-based, human; conditions: Sinefungin 100 μM for 10 days
Description: (A, E) qRT-PCR analysis of levels of hTR on RNA of UMUC3 cells (A) or of the cell line HeLa PARN KO (E), treated or not with 50 μM Sinefungin for 10 days. The bars represent the variation in the levels of hTR in the treated cells and in the not treated cells, obtained by three replicates. The effects of Sinefungin were tested on the tumour cell line of UMUC3 bladder, characterized by limiting levels of hTR for the activity telomerase and by short telomeres (Xu L. & Blackburn E. H. Mol Cell 28, 2007). The UMUC3 cells were treated with Sinefungin 100 μM for 10 days, and then the levels of RNA hTR were determined. […] In order to confirm that Sinefungin is capable of striking specifically the TGS1 enzyme, a treatment with Sinefungin was tested on clones of UMUC3 cells, characterized by CRISPR-induced mutations in TGS1 (Chen et al.) (FIG. 3C), inside thereof there is a lengthening of the telomeres over time due to a deficiency of TGS1 (FIG. 3D). Control cells and mutant cells were cultivated for 46 days in presence or absence of Sinefungin.

UMUC3 cells [3] = experiment: Telomere Restriction Fragment (TRF) analysis in TGS1-proficient UMUC3 cells; format: cell-based, human; conditions: TGS1-proficient UMUC3 cells cultivated with Sinefungin, over 15 population doublings / 46 days
Description: (B,D,F) Determination of the telomeric length by means of Telomere Restriction Fragment analysis (TRF, performed according to the methods described in Roake, C. M. et al. Mol Cell 74, 2019) in two cell types characterized by short telomeres: the UMUC3 tumour cell line and the HeLa cells lacking in TGS1 or deadenylase PARN. […] No lengthening of telomeres in the not-treated parental cells is observed (lanes 9-10). The effects of Sinefungin were tested on the tumour cell line of UMUC3 bladder, characterized by limiting levels of hTR for the activity telomerase and by short telomeres (Xu L. & Blackburn E. H. Mol Cell 28, 2007). The UMUC3 cells were treated with Sinefungin 100 μM for 10 days, and then the levels of RNA hTR were determined. […] In order to confirm that Sinefungin is capable of striking specifically the TGS1 enzyme, a treatment with Sinefungin was tested on clones of UMUC3 cells, characterized by CRISPR-induced mutations in TGS1 (Chen et al.) (FIG. 3C), inside thereof there is a lengthening of the telomeres over time due to a deficiency of TGS1 (FIG. 3D). Control cells and mutant cells were cultivated for 46 days in presence or absence of Sinefungin.

HeLa PARN KO cells [4] = experiment: qRT-PCR analysis of hTR levels in HeLa PARN KO cells; format: cell-based, human; conditions: 50 μM Sinefungin, 10 days
Description: (A, E) qRT-PCR analysis of levels of hTR on RNA of UMUC3 cells (A) or of the cell line HeLa PARN KO (E), treated or not with 50 μM Sinefungin for 10 days. The bars represent the variation in the levels of hTR in the treated cells and in the not treated cells, obtained by three replicates. The effects of Sinefungin were tested on mutant HeLa cells for PARN deadenylase (PARN KO) enzyme, one of the causative factors of congenital dyskeratosis (Tummala et al., 2015) (Roake C. M. et al. Mol cell 74, 2019). PARN KO cells, obtained in the laboratory of […] (Stanford University), are characterized by short telomeres, due to the reduced levels of RNA component of telomerase.

HeLa PARN KO cells [5] = experiment: Telomere Restriction Fragment (TRF) analysis in HeLa PARN KO cells; format: cell-based, human; conditions: 50 μM Sinefungin, 46 days
Description: (B,D,F) Determination of the telomeric length by means of Telomere Restriction Fragment analysis (TRF, performed according to the methods described in Roake, C. M. et al. Mol Cell 74, 2019) in two cell types characterized by short telomeres: the UMUC3 tumour cell line and the HeLa cells lacking in TGS1 or deadenylase PARN. (F) HeLa PARN KO cells were treated or not with 50 μM of Sinefungin for the period of time indicated in culture. Due to the reduced levels of RNA component of telomerase, the average telomeric length is shorter in the PARN KO cells (lane 13) rather than in the parental HeLa cell line. (4.5 kb vs 7.5 kb). […] The effects of Sinefungin were tested on mutant HeLa cells for PARN deadenylase (PARN KO) enzyme, one of the causative factors of congenital dyskeratosis (Tummala et al., 2015) (Roake C. M. et al. Mol cell 74, 2019). PARN KO cells, obtained in the laboratory of […] (Stanford University), are characterized by short telomeres, due to the reduced levels of RNA component of telomerase.

[6] = test system: fungal cap methyltransferase enzyme; conditions: Chrebet et al. 2005; cited from earlier work
Toxoplasma gondii = conditions: mice infected with Toxoplasma gondii; cited from earlier work
[7] = high doses, goats; cited from earlier work
[8] = high doses, dogs; cited from earlier work
[9] = molecular target: T2, SET7/9 lysine methyltransferase (Mus musculus, UniProt Q8VHL1); conditions: murine model for renal fibrosis; cited from earlier work
T2 construct: host or cells: murine model of renal fibrosis
T2 sequence (Q8VHL1 1-366): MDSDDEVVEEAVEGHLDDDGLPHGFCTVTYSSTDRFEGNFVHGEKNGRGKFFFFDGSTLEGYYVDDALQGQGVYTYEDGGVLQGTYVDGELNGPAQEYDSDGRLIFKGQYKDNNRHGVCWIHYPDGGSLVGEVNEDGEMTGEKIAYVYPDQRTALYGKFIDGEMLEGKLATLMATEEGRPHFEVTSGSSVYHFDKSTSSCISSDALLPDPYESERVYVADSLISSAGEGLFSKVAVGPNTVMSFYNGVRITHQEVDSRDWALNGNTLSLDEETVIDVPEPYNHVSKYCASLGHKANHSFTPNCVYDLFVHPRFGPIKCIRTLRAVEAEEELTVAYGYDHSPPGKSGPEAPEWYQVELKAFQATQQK

RNA hypermethylase TGS1 = RNA hypermethylase TGS1 (Homo sapiens, UniProt Q96RS0); conditions: Yedavalli & Jeang 2010; cited from earlier work
Leishmania = conditions: cited from earlier work

T1 sequence (Q96RS0 whole entry, the tested form may be a part): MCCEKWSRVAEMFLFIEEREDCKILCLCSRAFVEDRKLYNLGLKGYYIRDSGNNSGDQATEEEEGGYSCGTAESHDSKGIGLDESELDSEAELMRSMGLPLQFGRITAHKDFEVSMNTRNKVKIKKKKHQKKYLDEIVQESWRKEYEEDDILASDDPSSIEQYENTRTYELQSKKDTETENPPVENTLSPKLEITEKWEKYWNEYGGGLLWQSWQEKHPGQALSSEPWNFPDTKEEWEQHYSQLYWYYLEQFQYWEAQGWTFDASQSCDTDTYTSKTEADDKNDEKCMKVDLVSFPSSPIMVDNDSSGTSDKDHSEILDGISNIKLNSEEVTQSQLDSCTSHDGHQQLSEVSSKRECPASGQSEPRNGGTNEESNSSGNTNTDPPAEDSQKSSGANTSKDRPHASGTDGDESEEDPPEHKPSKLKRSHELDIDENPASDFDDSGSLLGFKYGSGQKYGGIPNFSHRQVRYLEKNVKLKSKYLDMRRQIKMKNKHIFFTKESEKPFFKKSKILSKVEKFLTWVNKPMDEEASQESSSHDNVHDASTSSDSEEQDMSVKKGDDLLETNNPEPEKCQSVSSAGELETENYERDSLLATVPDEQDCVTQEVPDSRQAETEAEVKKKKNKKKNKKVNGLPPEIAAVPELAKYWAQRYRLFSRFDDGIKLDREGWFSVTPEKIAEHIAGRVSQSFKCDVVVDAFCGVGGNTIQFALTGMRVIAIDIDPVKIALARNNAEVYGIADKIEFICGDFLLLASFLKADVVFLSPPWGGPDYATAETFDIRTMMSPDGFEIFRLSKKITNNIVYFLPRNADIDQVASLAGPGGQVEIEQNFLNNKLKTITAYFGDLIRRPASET
Sequence of RNA hypermethylase TGS1 (Q96RS0 whole entry): as the sequence (Q96RS0 whole entry, the tested form may be a part) above

Sinefungin
methyl-transferase activity of TGS1 (3H-methyl transfer to m7GTP, TLC / liquid scintillation) [1]: inhibit the methyl-transferase activity of TGS1
increase in the levels of hTR (UMUC3 cells [2]): 1.5 times
telomere length (TRF) (UMUC3 cells [3]): A lengthening of telomeres takes place in the treated control cells; also recorded: a lengthening of the telomeres was observed
levels of hTR (HeLa PARN KO cells [4]): a significative increase in the levels of hTR
telomere length (TRF) (HeLa PARN KO cells [5]): a lengthening of telomeres; also recorded: a substantial increase in the telomere length
inhibition of fungal cap methyltransferase with respect to the human ortholog [6]: ten times more effectively
survival of infected mice (Toxoplasma gondii): increased the survival of mice
nephrotoxicity [7]: nephrotoxic effects were detected
nephrotoxicity [8]: nephrotoxic effects were detected
renal fibrosis pathology [9]: an improvement in the pathology
inhibition of TGS1 in human cells (RNA hypermethylase TGS1): inhibits RNA hypermethylase TGS1
survival of infected mice (Leishmania; mice infected with various isolates of Leishmania): increased the survival of mice
toxic effects in infected mice (Leishmania; mouse, in vivo): without showing clinically detectable toxic effects
